Source: patent US20250302043A1, “BIOCIDE FORMULATIONS FOR THE PRESERVATION OF ANALYTE DETECTION SENSOR(S) AND METHOD(S) OF USE AND THEREOF” (Siemens Healthcare Diagnostics Inc., priority 2019, published 2025)

How the values were obtained:
[1] = test system: creatinase enzyme of creatinine detection sensors; test: Inactivation of the enzyme of creatinine detection sensors after exposure to biocide; assay type: biochemical; conditions: individual biocide; creatinine detection sensor; 'in as little as'
From the text: Biocides are often used to preserve the at least one analyte detection sensor(s) of a sensor array present in a blood gas, electrolyte, and/or metabolite instrument. However, when such analyte detection sensor(s) is a creatinine detection sensor(s), these biocides inactivate some or all of the enzymes present on and/or in the creatinine sensor(s). In the context of creatinine sensors, such sensors rely on enzymes containing free sulfhydryl groups (—SH) for the proper and continuous functioning of the sensors. Such free sulfhydryl groups chemically react with certain species of biocide(s) (such as, Cl-MlT) that result in the inactivation of the creatinine sensor's(s′) enzymes, thereby resulting in decreased (or total loss) of functional utility and/or functional life of the creatinine sensor(s). Such inactivation can occur very rapidly. […]
(§1) Referring now to FIG. 4A, shown therein is a graphical plot showing the concentrations (measured in CFU per milliliter) of various contaminants (y-axis), such as, by way of example only, bacteria (including S. aureus, E. coli, P. aeruginosa, and C. maltaromaticum) and fungi (including, C. albicans, A. niger, and Penicillium sp.) over a period of six weeks (x-axis) on plates treated with a concentration of about 5 ppm of the individual aqueous biocide Cl-MlT in accordance with the presently disclosed and/or claimed inventive concept(s).

[2] = test system: bacteria (including S. aureus, E. coli, P. aeruginosa, and C. maltaromaticum) and fungi (including, C. albicans, A. niger, and Penicillium sp.); test: Biocide efficacy: concentrations (CFU per milliliter) of contaminants over time on plates treated with biocide; assay type: cell-based; conditions: for decrease or elimination of the bacteria and/or fungi contaminants: plates
From the text: FIG. 3 is a graphical plot showing the concentrations (measured in CFU per milliliter) of various contaminants (y-axis), such as, by way of example only, bacteria and fungi, over a period of time in weeks (x-axis) on plates treated with a concentration of about 20 ppm hexahydro 1,3,5-tris(2-hydroxy ethyl)-S-triazine (“Onyxide200”) biocide in accordance with the presently disclosed and/or claimed inventive concept(s).
FIG. 4A is a graphical plot showing the concentrations (measured in CFU per milliliter) of various contaminants (y-axis), such as, by way of example only, bacteria and fungi, over a period of time in weeks (x-axis) on plates treated with a concentration of about 5 ppm of 5-chloro-2-methylisothiazol-3(2H)-one (“Cl-MlT”) biocide in accordance with the presently disclosed and/or claimed inventive concept(s).
FIG. 5A is a graphical plot showing the concentrations (measured in CFU per milliliter) of various contaminants (y-axis), such as, by way of example only, bacteria and fungi, over a period of time in weeks (x-axis) on plates treated with a combination of concentrations of about 20 ppm of Onyxide200 biocide and about 4 ppm of Cl-MlT biocide in accordance with the presently disclosed and/or claimed inventive concept(s).
as §1, with “3,” for “4A,”, “five” for “six”, “20” for “5”, “Onyxide200” for “Cl-MlT”, “concept(s). […]” for “concept(s).”
Referring now to FIG. 5A, shown therein is a graphical plot showing the concentrations (measured in CFU per milliliter) of various contaminants (y-axis), such as, by way of example only, bacteria (including S. aureus, E. coli, P. aeruginosa, and C. maltaromaticum) and fungi (including, C. albicans, A. niger, and Penicillium sp.) over a period of six weeks (x-axis) on plates treated with a combined aqueous biocide formulation comprising concentrations of about 20 ppm of Onyxide200 biocide and about 4 ppm of Cl-MlT biocide in accordance with the presently disclosed and/or claimed inventive concept(s). […] This is synergistic effect allows for a significant increase in the formulation's efficacy for contaminant removal over the individual component biocides (Onyxide200 and Cl-MlT) which comprise the formulation.

Structure (SMILES)	time after exposure at which inactivation of the enzyme occurs [1] [days]	week of plating at which decrease and/or elimination was obtained for some contaminants ([2]; about 1 ppm individual aqueous biocide, FIG. 4B) [week]	decrease or elimination of the bacteria and/or fungi contaminants ([2]; about 1 ppm individual aqueous biocide, six weeks, FIG. 4B)	week after plating at which decrease and/or elimination was obtained for some contaminants ([2]; about 5 ppm individual aqueous biocide, FIG. 4A) [week]	decrease or elimination of the bacteria and/or fungi contaminants ([2]; about 5 ppm individual aqueous biocide, six weeks, FIG. 4A)	decrease or elimination of the bacteria and/or fungi contaminants ([2]; about 20 ppm individual aqueous biocide, five weeks, FIG. 3)
Cn1sc(Cl)cc1=O [Cl-MlT, 5-chloro-2-methylisothiazol-3(2H)-one]	1 to 4	> 6	eventually resulted in a decrease or elimination of only some of the bacteria and/or fungi contaminants	5	eventually resulted in a decrease or elimination of the bacteria and/or fungi contaminants	–
OCCN1CN(CCO)CN(CCO)C1 [Onyxide200, hexahydro 1,3,5-tris(2-hydroxyethyl)-S-triazine]	–	–	–	–	–	did not result in a substantial decrease or elimination of the bacteria and/or fungi contaminants
